Data: patent publication US7868026B2, “Therapeutic compounds” (Pfizer Inc., priority 2005, dated 2011)
Where two headings read alike, the source gives them in different places.

Assays:
Assay type in all cases: biochemical
[1] = molecular target: T1, CYP3A4 (Homo sapiens, UniProt P08684); experiment: Determination of IC50 against CYP3A4 by measurement of inhibition of midazolam metabolism (human liver microsomes, 1-hydroxymidazolam by LC-MS/MS); parameters: 0.1 mg/mL human liver microsomes; details: 2 μM midazolam, 0.1 mg/mL human liver microsomes
In short: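 Human liver microsomes (0.1 mg/mL) incubated 8 min with 2 μM midazolam and 1 mM NADPH in 100 mM potassium phosphate, pH 7.4. 1-Hydroxymidazolam quantified by LC-MS/MS (MRM) as peak area ratio to internal standard against a metabolite standard curve.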

[2] = molecular target: T1, CYP3A4; experiment: Determination of compound Kiapp against recombinant CYP3A4 enzyme (BFC fluorescent substrate)
In short: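 Kiapp derived from initial velocities over the first 5 min of BFC (5 uM) oxidation, using Morrison's tight-binding equation for non-partial and Szedlacsek's for partial inhibitors. Inhibitor first pre-incubated ≥30 min with CYP3A4 (5.5 or 8 nM, ±b5) in pH 7.0 phosphate/TCEP/2% DMF at room temperature; 200 uM NADPH initiated.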

[3] = molecular target: T1, CYP3A4; experiment: Determination of IC50 against CYP3A4 by measurement of inhibition of testosterone metabolism (human liver microsomes, 6-β-OH-testosterone by LC-MS/MS); parameters: 0.1 mg/mL human liver microsomes; details: read-out: IC50 (Testo.)
In short: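 6-β-OH-testosterone formation was read by LC-MS/MS (MRM, internal standard, standard curve) after eight minutes. Reaction contained testosterone 25 μM, NADPH 1 mM and microsomal protein 0.1 mg/mL in pH 7.4 potassium phosphate (100 mM).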

[4] = Baculo. enzyme preparation, read-out: Kiapp (BFC, Baculo.)
[5] = Super. enzyme preparation, read-out: Kiapp (BFC, Super.)

T1 sequence (P08684 whole entry): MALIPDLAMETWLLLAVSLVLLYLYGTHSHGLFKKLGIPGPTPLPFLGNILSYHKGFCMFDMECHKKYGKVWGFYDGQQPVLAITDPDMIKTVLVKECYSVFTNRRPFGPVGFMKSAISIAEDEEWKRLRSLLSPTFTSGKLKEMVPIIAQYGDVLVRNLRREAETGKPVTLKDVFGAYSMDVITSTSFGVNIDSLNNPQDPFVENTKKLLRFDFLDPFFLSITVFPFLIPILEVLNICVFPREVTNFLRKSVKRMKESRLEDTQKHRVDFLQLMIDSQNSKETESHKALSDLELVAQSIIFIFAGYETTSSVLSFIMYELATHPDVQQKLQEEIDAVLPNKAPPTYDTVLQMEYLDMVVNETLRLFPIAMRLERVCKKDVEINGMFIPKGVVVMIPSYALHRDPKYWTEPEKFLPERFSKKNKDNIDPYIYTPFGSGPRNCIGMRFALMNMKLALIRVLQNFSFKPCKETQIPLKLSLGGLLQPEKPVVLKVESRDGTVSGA

| IC50 [1] | Ki [2, 4] | Ki [2, 5] | IC50 [3] | SMILES |
| --- | --- | --- | --- | --- |
| 7 nM | 54.4 nM | 21.2 nM | 9 nM | Cc1cncc(NS(=O)(=O)c2ccccc2C(=O)N(C)CCc2ccccc2)c1 [Example 344, N-methyl-2-{[(5-methylpyridin-3-yl)amino]sulfonyl}-N-(2-phenylethyl)benzamide] |
| 75 nM | 409 nM | 135 nM | 48 nM | CN(c1cccnc1)S(=O)(=O)c1ccccc1C(=O)N1CCCC(C)(C)C1 [Example 345, 2-[(3,3-dimethylpiperidin-1-yl)carbonyl]-N-methyl-N-pyridin-3-ylbenzenesulfonamide] |
| 19 nM | 52 nM | 13.2 nM | 11 nM | COc1cncc(NS(=O)(=O)c2ccccc2C(=O)N(C)Cc2cccc(F)c2)c1 [Example 346, N-(3-fluorobenzyl)-2-{[(5-methoxypyridin-3-yl)amino]sulfonyl}-N-methylbenzamide] |
| 13 nM | 34.7 nM | 5.4 nM | 26 nM | Cc1cncc(NS(=O)(=O)c2ccccc2C(=O)N(C)CC2CCCC2)c1 [Example 347, N-(cyclopentylmethyl)-N-methyl-2-{[(5-methylpyridin-3-yl)amino]sulfonyl}benzamide] |
| 7 nM | 30.8 nM | 4.7 nM | 12 nM | Cc1cncc(NS(=O)(=O)c2ccccc2C(=O)N(C)CCC(C)C)c1 [Example 348, N-methyl-N-(3-methylbutyl)-2-{[(5-methylpyridin-3-yl)amino]sulfonyl}benzamide] |
| 11 nM | 56.4 nM | 7.4 nM | 25 nM | Cc1cncc(NS(=O)(=O)c2ccccc2C(=O)N(C)Cc2cccc(F)c2)c1 [Example 349, N-(3-fluorobenzyl)-N-methyl-2-{[(5-methylpyridin-3-yl)amino]sulfonyl}benzamide] |
| 20 nM | 139 nM | 21.4 nM | 39 nM | CN(Cc1cccc(F)c1)C(=O)c1ccccc1S(=O)(=O)Nc1cccnc1 [Example 350, N-(3-fluorobenzyl)-N-methyl-2-[(pyridin-3-ylamino)sulfonyl]benzamide] |
| 113 nM | 456 nM | 138 nM | 110 nM | CCCCNC(=O)c1ccccc1S(=O)(=O)N(C)c1cccnc1 [Example 351, N-butyl-2-{[methyl(pyridin-3-yl)amino]sulfonyl}benzamide] |
| 16 nM | 70.4 nM | 22.6 nM | 31 nM | CCCCN(C)C(=O)c1ccccc1S(=O)(=O)Nc1cncc(C)c1 [Example 352, N-butyl-N-methyl-2-{[(5-methylpyridin-3-yl)amino]sulfonyl}benzamide] |
| 18 nM | 28.1 nM | 11.5 nM | 31 nM | CCCCN(C)C(=O)c1ccccc1S(=O)(=O)Nc1cncc(OC)c1 [Example 353, N-butyl-2-{[(5-methoxypyridin-3-yl)amino]sulfonyl}-N-methylbenzamide] |
| 31 nM | 305 nM | 25.3 nM | 61 nM | Cc1cncc(NS(=O)(=O)c2ccccc2C(=O)NC(C)(C)C)c1 [Example 354, N-(tert-butyl)-2-{[(5-methyl-pyridin-3-yl)amino]sulfonyl} benzamide] |
| 63 nM | 181 nM | 44.9 nM | 64 nM | CN(Cc1ccccc1)C(=O)c1ccccc1S(=O)(=O)N(C)c1cccnc1 [Example 355, N-benzyl-N-methyl-2-{[methyl(pyridin-3-yl)amino]sulfonyl}benzamide] |
| 83 nM | 483 nM | 148 nM | 114 nM | CC1CCN(C(=O)c2ccccc2S(=O)(=O)N(C)c2cccnc2)CC1 [Example 356, N-methyl-2-[(4-methylpiperidin-1-yl)carbonyl]-N-pyridin-3-ylbenzenesulfonamide] |
